According to patent USRE37886E1, “1-(1,2-Disubstituted piperidinyl)-4-substituted piperazine derivatives” (Janssen Pharmaceuticals, N.V., priority 1995, dated 2002):
pIC50: −log10 of the molar value.

Key:
[1] = test system: substance P induced plasma extravasation; assay: Antagonism of substance P induced plasma extravasation in guinea-pigs; type: in vivo; settings: lowest active dose, female guinea-pigs; for LAD nose: compound 1 hour prior to substance P (2 mg/kg, femoral artery), blue colouring of nose 10 minutes after challenge; for LAD conjunctiva / LAD forepaws / LAD trachea / LAD urinary bladder: compound 1 hour prior to substance P; for LAD conjunctiva: blue colouring of conjunctiva 10 minutes after challenge; for LAD forepaws: blue colouring of forepaws 10 minutes after challenge; for LAD trachea: blue colouring of trachea 30 minutes after challenge; for LAD urinary bladder: blue colouring of urinary bladder 30 minutes after challenge
Text: (§1) The compounds of the present invention are potent inhibitors of neurokinin-mediated effects, in particular those mediated via the NK1 receptor, and may therefore be described as tachykinin antagonists, especially as substance P antagonists, as indicated in vitro by the antagonism of substance P induced relaxation of pig coronary arteries which is described hereinafter. The binding affinity of the present compounds for the human, guinea-pig and gerbil neurokinin receptors may be determined in vitro in a receptor binding test using ^3H-substance-P as radioligand. The subject compounds also show substance-P antagonistic activity in vivo as may be evidenced by, for instance, the antagonism of substance P-induced plasma extravasation in guinea-pigs, or the antagonism of drug-induced emesis in ferrets (Watson et al., Br. J. Pharmacol. 115, 84-94, 1995).
Antagonism of substance P induced plasma extravasation in guinea-pigs
Plasma extravasation was induced by injection of substance P (2 mg/kg) in the femoral artery of female guinea-pigs. Evans Blue dye (30 mg/kg) was injected simultaneously. The test compound or solvent was administered 1 hour prior to substance P injection. 10 minutes after challenge, the aminals were checked for blue colouring (a direct measure for plasma extravasation) of the nose, the forepaws, and the conjectiva. 30 minutes after challenge, the animals were sacrificed by CO2 gas inhalation and checked for blue colouring of the trachea and the urinary bladder. […]

[2] = test system: substance-P induced relaxation of the pig coronary arteries; assay: Antagonism of substance-P induced relaxation of the pig coronary arteries; type: cell-based; settings: concentration at which 50% of the response to 10^−9 M substance P was inhibited, 30 minutes incubation, prostaglandin F2a precontracted segments
Text: as §1
Antagonism of substance-P induced relaxation of the pig coronary arteries
Segments of coronary artieries taken from pigs (killed by injection of an overdose of sodium pentobarbital) were inverted and mounted for recordign of isometric tension in organ baths (volume 20 ml) with the endothelium at the outside. The preparations were bathed in Krebs-Henseleit solution. The solution was kept at 37° C. and gassed with a mixture of O2/CO2 (95/5). After stabilisation of the preparations, prostaglandin F2a (10^−5 M) was administered to induce a contraction. This was repeated until contractivle responses became stable. Then prostaglandin F2a was again administered and substance P(3×10^−10 M and 10^−9 M cumulatively) was added. Substance P induced endothelium dependent relaxations. After washing away the agonists, a known concentratin of a compound of formula (I) was added. After an incubation period of 30 minutes, prostaglandin F2a ([…]) and the same concentrations of sbustance P as described above were again administered in the presence of the compound to be tested. Relaxations caused by substance P were expressed as relaxations under control conditions, and percent inhibition of the response to […] substance P was taken as a measure of the antagonistic activity of the compound to be tested. Table 6 lists the IC50 values (concentration at which 50% of the response to […] substance P was inhibited by the test compound) for the tested compounds.

Cc1cccc(C)c1NC(=O)CN1CCN([C@H]2CCN(C(=O)c3cc(C(F)(F)F)cc(C(F)(F)F)c3)[C@@H](Cc3cc(F)cc(F)c3)C2)CC1 (racemic) [Compound 132, (±)-cis-4-[1-[3,5-bis (trifluoromethyl)benzoyl]-2-[(3,5-difluorophenyl)methyl]-4-piperidinyl]-N-(2,6-dimethylphenyl)-1-piperazineacetamide]
LAD nose [1]: 10.0 mg/kg | LAD conjunctiva [1]: 10.0 mg/kg | LAD forepaws [1]: 10.0 mg/kg | LAD trachea [1]: 10.0 mg/kg | LAD urinary bladder [1]: 10.0 mg/kg | pIC50 ([2]; Sus scrofa, 0.5 h): 8.68

Cc1cccc(C)c1NC(=O)CN1CCN([C@@H]2CCN(C(=O)c3cc(C(F)(F)F)cc(C(F)(F)F)c3)[C@@H](Cc3cc(F)cc(F)c3)C2)CC1 (racemic) [Compound 133, (±)-trans-4-[1-[3,5-bis(trifluoromethyl)benzoyl]-2-[(3,5-difluorophenyl)methyl]-4-piperdinyl]-N-(2,6-dimethylphenyl)-1-piperazineacetamide]
LAD nose [1]: 2.50 mg/kg | LAD conjunctiva [1]: 2.50 mg/kg | LAD forepaws [1]: 2.50 mg/kg | LAD trachea [1]: 10.0 mg/kg | LAD urinary bladder [1]: 10.0 mg/kg | pIC50 [2]: 9.21

Cc1cccc(C)c1NC(=O)CN1CCN(C2CCN(C(=O)c3cc(C(F)(F)F)cc(C(F)(F)F)c3)C(Cc3ccc(F)c(F)c3)C2)CC1 (racemic) [Compound 134]
LAD nose [1]: 10.0 mg/kg | LAD conjunctiva [1]: 10.0 mg/kg | LAD forepaws [1]: 10.0 mg/kg | LAD trachea [1]: 10.0 mg/kg | LAD urinary bladder [1]: 10.0 mg/kg | pIC50 [2]: 10.40

Cc1cccc(C)c1NC(=O)CN1CCN(C2CCN(C(=O)c3cc(C(F)(F)F)cc(C(F)(F)F)c3)C(Cc3ccc(F)c(F)c3)C2)CC1 (racemic) [Compound 135]
LAD nose [1]: 0.63 mg/kg | LAD conjunctiva [1]: 0.63 mg/kg | LAD forepaws [1]: 0.63 mg/kg | LAD trachea [1]: 2.50 mg/kg | LAD urinary bladder [1]: >40 mg/kg | pIC50 [2]: 11.00

Cc1cccc(C)c1NC(=O)CN1CCN(C2CCN(C(=O)c3cc(C(F)(F)F)cc(C(F)(F)F)c3)C(Cc3ccc(Cl)c(Cl)c3)C2)CC1 (racemic) [Compound 138]
LAD nose [1]: 2.50 mg/kg | LAD conjunctiva [1]: 2.50 mg/kg | LAD forepaws [1]: 2.50 mg/kg | LAD trachea [1]: 10.0 mg/kg | LAD urinary bladder [1]: >40 mg/kg | pIC50 [2]: 9.80

Cc1cccc(C)c1NC(=O)CN1CCN([C@@H]2CCN(C(=O)c3cc(C(F)(F)F)cc(C(F)(F)F)c3)[C@@H](Cc3ccc(Cl)c(Cl)c3)C2)CC1 (racemic) [Compound 139, (±)-trans-4-[1-[3,5-bis(trifluoromethyl)benzoyl]-2-[(3,4-dichlorophenyl)methyl]-4-piperidinyl]-N-(2,6-dimethylphenyl)-1-piperazineacetamide]
LAD nose [1]: 2.50 mg/kg | LAD conjunctiva [1]: 2.50 mg/kg | LAD forepaws [1]: 2.50 mg/kg | LAD trachea [1]: 2.50 mg/kg | LAD urinary bladder [1]: 2.50 mg/kg | pIC50 ([2]; Sus scrofa, 0.5 h): 9.89

Cc1cccc(C)c1NC(=O)CN1CCN([C@@H]2CCN(C(=O)c3cc(C(F)(F)F)cc(C(F)(F)F)c3)[C@@H](Cc3ccccc3)C2)CC1.O=C(O)C[C@H](O)C(=O)O (relative stereo) [Compound 95, (+)-(B)-trans-4-[1-[3,5-bis(trifluoromethyl)benzoyl]-2-(phenylmethyl)-4-piperidinyl]-N-(2,6-dimethylphenyl)-1-piperazine acetamide. (L)-malic acid (1:1)]
LAD nose [1]: 0.31 mg/kg | LAD conjunctiva [1]: 0.31 mg/kg | LAD forepaws [1]: 0.31 mg/kg | LAD trachea [1]: 0.63 mg/kg | LAD urinary bladder [1]: 2.50 mg/kg | pIC50 [2]: 10.00

Cc1cccc(C)c1NC(=O)CN1CCN([C@@H]2CCN(C(=O)c3cc(C(F)(F)F)cc(C(F)(F)F)c3)[C@@H](Cc3ccccc3)C2)CC1.O=C(O)/C=C/C(=O)O (relative stereo) [Compound 128, (B-trans)-4-[1-[3,5-bis(trifluoromethyl)benzoyl]-2-(phenylmethyl)-4-piperidinyl]-N-(2,6-dimethylphenyl)-1-piperazineacetamide (E)-2-butenedioate (1:1)]
LAD nose [1]: 0.63 mg/kg | LAD conjunctiva [1]: 0.63 mg/kg | LAD forepaws [1]: 0.63 mg/kg | LAD trachea [1]: >40 mg/kg | LAD urinary bladder [1]: 10.0 mg/kg | pIC50 [2]: 9.46

Cc1cccc(C)c1NC(=O)CN1CCN(C2CCN(C(=O)c3cc(C(F)(F)F)cc(C(F)(F)F)c3)C(Cc3ccccc3)C2)CC1 (single isomer, unassigned) [Compound 42]
LAD nose [1]: 1.25 mg/kg | LAD conjunctiva [1]: 2.50 mg/kg | LAD forepaws [1]: 1.25 mg/kg | LAD trachea [1]: 5.00 mg/kg | LAD urinary bladder [1]: 5.00 mg/kg | pIC50 [2]: 9.03

Cc1cccc(C)c1NC(=O)CN1CCN(C2CCN(C(=O)c3cc(C(F)(F)F)cc(C(F)(F)F)c3)C(Cc3ccc(C(F)(F)F)cc3)C2)CC1.O=C(O)/C=C/C(=O)O (single isomer, unassigned) [Compound 136]
LAD nose [1]: 2.50 mg/kg | LAD conjunctiva [1]: 2.50 mg/kg | LAD forepaws [1]: 2.50 mg/kg | LAD trachea [1]: 2.50 mg/kg | LAD urinary bladder [1]: 2.50 mg/kg | pIC50 [2]: 9.51

Cc1cccc(C)c1NC(=O)CN1CCN(C2CCN(C(=O)c3cc(C(F)(F)F)cc(C(F)(F)F)c3)C(Cc3ccc(C(F)(F)F)cc3)C2)CC1 (single isomer, unassigned) [Compound 137]
LAD nose [1]: 2.50 mg/kg | LAD conjunctiva [1]: 2.50 mg/kg | LAD forepaws [1]: 2.50 mg/kg | LAD trachea [1]: 2.50 mg/kg | LAD urinary bladder [1]: 2.50 mg/kg | pIC50 [2]: 9.64

O=C(c1cc(C(F)(F)F)cc(C(F)(F)F)c1)N1CCC(N2CCN(CCn3c(=O)[nH]c4ccccc43)CC2)CC1Cc1ccccc1 (stereo not drawn) [Compound 19]
LAD nose [1]: 2.50 mg/kg | LAD conjunctiva [1]: 2.50 mg/kg | LAD forepaws [1]: 2.50 mg/kg | LAD trachea [1]: 10.0 mg/kg | LAD urinary bladder [1]: >40 mg/kg | pIC50 [2]: 9.27

CCOCCn1c(N2CCN(C3CCN(C(=O)c4cc(C(F)(F)F)cc(C(F)(F)F)c4)C(Cc4ccccc4)C3)CC2)nc2ccccc21 (stereo not drawn) [Compound 22]
LAD nose [1]: 2.50 mg/kg | LAD conjunctiva [1]: 2.50 mg/kg | LAD forepaws [1]: 2.50 mg/kg | LAD trachea [1]: 10.0 mg/kg | LAD urinary bladder [1]: >40 mg/kg | pIC50 [2]: 9.43

Cc1ncc(Cn2c(N3CCN(C4CCN(C(=O)c5cc(C(F)(F)F)cc(C(F)(F)F)c5)C(Cc5ccccc5)C4)CC3)nc3ccccc32)o1 (stereo not drawn) [Compound 24]
LAD nose [1]: 2.50 mg/kg | LAD conjunctiva [1]: 10.0 mg/kg | LAD forepaws [1]: 2.50 mg/kg | LAD trachea [1]: 10.0 mg/kg | LAD urinary bladder [1]: >40 mg/kg | pIC50 [2]: 9.19

O=C(CN1CCN(C2CCN(C(=O)c3cc(C(F)(F)F)cc(C(F)(F)F)c3)C(Cc3ccccc3)C2)CC1)NC(c1ccccc1)c1ccccc1 (stereo not drawn) [Compound 33]
LAD nose [1]: 2.50 mg/kg | LAD conjunctiva [1]: 2.50 mg/kg | LAD forepaws [1]: 10.0 mg/kg | LAD trachea [1]: >40 mg/kg | LAD urinary bladder [1]: >40 mg/kg | pIC50 [2]: 9.22

Cc1ncc(Cn2c(N3CCCN(C4CCN(C(=O)c5cc(C(F)(F)F)cc(C(F)(F)F)c5)C(Cc5ccccc5)C4)CC3)nc3ccccc32)o1 (stereo not drawn) [Compound 34]
LAD nose [1]: 2.50 mg/kg | LAD conjunctiva [1]: 2.50 mg/kg | LAD forepaws [1]: 10.0 mg/kg | LAD trachea [1]: 10.0 mg/kg | LAD urinary bladder [1]: 10.0 mg/kg | pIC50 [2]: 9.46
